According to the supplement of paper PMC11616607:

What was measured:
Assay in all cases: drug sensitivity score (DSS) from 5-point dose-response viability curve (DSS (area-under-curve based score)); higher = more sensitive (stronger growth inhibition or killing); extreme values may be limits of the assay
Conditions in all cases: exposure time: 72 h; concentration range: 5 concentrations over 10,000-fold range
OVCAR4 = tested on: OVCAR4
Summary of the method: (§1)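 Ovarian cancer and normal ovarian cell lines were tested in 384-well plates. Drugs were acoustically dispensed (Echo 550) in DMSO or water at five concentrations spanning a 10,000-fold range, then 1,500 cells per well were added and incubated 3 days at 37°C, 5% CO2. Viability was read by CellTiter-Glo luminescence on a PHERAstar FS. Drug sensitivity score was derived per cell line and drug with Breeze software; higher means more sensitive, zero means no response.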

COV362 = tested on: COV362
Summary of the method: as §1

COV318 = tested on: COV318
Summary of the method: as §1

OVCAR5 = tested on: OVCAR5
Summary of the method: as §1

OV90 = tested on: OV90
Summary of the method: as §1

HOSE1C = tested on: HOSE1C
Summary of the method: as §1

JHOS2 = tested on: JHOS2
Summary of the method: as §1

CAOV3 = tested on: CAOV3
Summary of the method: as §1

OVCAR8 = tested on: OVCAR8
Summary of the method: as §1

HOSE2C = tested on: HOSE2C
Summary of the method: as §1

Kuramochi = tested on: Kuramochi
Summary of the method: as §1

Ovsaho = tested on: Ovsaho
Summary of the method: as §1

Row | Structure (SMILES) | drug sensitivity score (OVCAR4) | drug sensitivity score (COV362) | drug sensitivity score (COV318) | drug sensitivity score (OVCAR5) | drug sensitivity score (OV90) | drug sensitivity score (HOSE1C) | drug sensitivity score (JHOS2) | drug sensitivity score (CAOV3) | drug sensitivity score (OVCAR8) | drug sensitivity score (HOSE2C) | drug sensitivity score (Kuramochi) | drug sensitivity score (Ovsaho)
1 | CC1(C)CCC(CN2CCN(c3ccc(C(=O)NS(=O)(=O)c4ccc(NCC5CCOCC5)c([N+](=O)[O-])c4)c(Oc4cnc5[nH]ccc5c4)c3)CC2)=C(c2ccc(Cl)cc2)C1 [Venetoclax] | 0 | 0 | 0 | 0 | 0 | 0 | 2.8 | 0 | 0 | 0 | 0 | 0
2 | CC(=O)Nc1ccc(C(=O)Nc2ccccc2N)cc1 [Tacedinaline] | 0.1 | 0 | 0 | 3.4 | 1.1 | 0.6 | 0 | 0 | 0 | 0.7 | 1.7 | 0
3 | CN[C@@H](C)C(=O)N[C@H](C(=O)N1CCC[C@H]1c1nc(C(=O)c2ccc(F)cc2)cs1)C1CCCCC1 [NVP-LCL161] | 16.4 | 1.9 | 0.8 | 4.1 | 5 | 0.7 | 9.1 | 14.4 | 8.5 | 0 | 1.9 | 8.6
4 | c1cc(CN2CCCNCCNCCCNCC2)ccc1CN1CCCNCCNCCCNCC1 [Plerixafor] | 0 | 0 | 0 | 0 | 0 | 0 | 0 | 0 | 0 | 0 | 0 | 0
5 | CCOc1ccn(-c2ccc(F)cc2)c(=O)c1C(=O)Nc1ccc(Oc2ccnc(N)c2Cl)c(F)c1 | 0 | 0 | 0 | 0 | 0 | 0 | 0 | 0 | 0 | 0 | 0 | 0
6 | Cc1cc(Nc2ncnc3ccc(NC4=NC(C)(C)CO4)cc23)ccc1Oc1ccn2ncnc2c1 [Tucatinib] | 0 | 0 | 0 | 0 | 0 | 0 | 0 | 0 | 0 | 0 | 0 | 0
7 | C[C@H](Nc1ncnc2nc[nH]c12)c1cc2cccc(Cl)c2c(=O)n1-c1ccccc1 [Duvelisib] | 0.7 | 0 | 0 | 0 | 0 | 0.2 | 0 | 0.1 | 0 | 0 | 2 | 1.4
8 | Cn1cc(C2=C(c3cn(C4CCN(Cc5ccccn5)CC4)c4ccccc34)C(=O)NC2=O)c2ccccc21 [Enzastaurin] | 0 | 1.6 | 0 | 2.6 | 0 | 0.2 | 0.1 | 0 | 4.2 | 1.5 | 0 | 2
9 | CC(C)C[C@H](NC(=O)[C@H](Cc1ccccc1)NC(=O)c1cnccn1)B(O)O [Bortezomib] | 24.6 | 24.7 | 28.3 | 23.9 | 22.8 | 27.4 | 24.5 | 26.4 | 23 | 24.4 | 9.3 | 17.8
10 | CC[C@@H]1[C@H](F)C(=O)N[C@@H]1COc1nccc2cc(C(N)=O)c(OC)cc12 | 0.4 | 0 | 0 | 0.6 | 0.6 | 0 | 1.3 | 0.9 | 0.7 | 0 | 1.8 | 2.3
11 | CCCN(CCC)C(=O)C1=Cc2ccc(-c3ccc(C(=O)N4CCCC4)cc3)cc2N=C(N)C1 [Motolimod] | 0.9 | 0 | 2.3 | 0.5 | 1.9 | 0 | 1.8 | 0 | 0.8 | 0 | 0.3 | 0
12 | CCCc1cc(C)[nH]c(=O)c1CNC(=O)c1cc(-c2ccnc(N3CCN(C)CC3)c2)cc2c1cnn2C(C)C [GSK343] | 0 | 0 | 0 | 0 | 0 | 0 | 0 | 0 | 0 | 0 | 0 | 0
13 | CCNC(=O)C[C@@H]1N=C(c2ccc(Cl)cc2)c2cc(OC)ccc2-n2c(C)nnc21 [Molibresib] | 4.3 | 2.3 | 3.3 | 7.8 | 8.4 | 9.8 | 4.1 | 8.4 | 5.7 | 10 | 9.3 | 9.3
14 | O=C(CCCCCCC(=O)Nc1ccc([C@H]2O[C@@H](CSc3nc(-c4ccccc4)c(-c4ccccc4)o3)C[C@@H](c3ccc(CO)cc3)O2)cc1)NO [Tubacin] | 2.7 | 0.7 | 2 | 2.4 | 2.4 | 2.5 | 1.7 | 1.8 | 5.6 | 2.6 | 2.6 | 2.3
15 | Cc1cccc(-c2[nH]c(CNc3ccccc3F)nc2-c2ccc3ncnn3c2)n1 [TEW-7197] | 0 | 5 | 0 | 1.3 | 0 | 0 | 0 | 0 | 0.1 | 0.9 | 0 | 0
16 | CCN(CC)CCN(Cc1ccc(-c2ccc(C(F)(F)F)cc2)cc1)C(=O)Cn1c(SCc2ccc(F)cc2)nc(=O)c2c1CCC2 [Darapladib] | 0 | 2.4 | 0.2 | 0.9 | 0.6 | 0 | 0.3 | 0 | 0 | 0 | 1 | 2
17 | O=C(NC1CCNCC1)c1n[nH]cc1NC(=O)c1c(Cl)cccc1Cl [AT7519] | 9.3 | 12 | 6.2 | 13.5 | 14.2 | 16.6 | 18 | 13.9 | 15.5 | 8 | 9.3 | 8.9
18 | Cc1ncc(Cl)cc1NCc1ccc(C(=O)N[C@@H](CC2CCCC2)C(=O)NC2CC2)s1 | 0 | 0 | 0 | 0 | 0.1 | 0 | 0 | 0 | 0 | 0 | 0.4 | 0
19 | CC(C)(O)CNc1nc(Nc2ccnc(C(F)(F)F)c2)nc(-c2cccc(C(F)(F)F)n2)n1 [Enasidenib] | 0 | 1.1 | 0 | 0 | 0 | 0 | 0 | 0 | 0.9 | 0 | 0 | 0
20 | CC(=O)OC[C@H]1O[C@@H]([S-])[C@H](OC(C)=O)[C@@H](OC(C)=O)[C@@H]1OC(C)=O.CCP(CC)CC.[Au+] [Auranofin] | 1.7 | 0 | 5 | 1.3 | 3.5 | 13.3 | 4.1 | 9.3 | 3.4 | 13.3 | 2.9 | 7.8
21 | COC(=O)c1ccc([C@H]2c3[nH]c4ccccc4c3C[C@H](C(=O)OC)N2C(=O)CCl)cc1 [RSL3] | 0 | 0 | 0 | 3.1 | 0 | 14.5 | 0 | 0 | 0 | 25.4 | 0 | 0
22 | O=c1sn(-c2cccc3ccccc23)c(=O)n1Cc1ccccc1 [Tideglusib] | 0 | 0 | 0 | 0 | 0 | 0 | 0 | 0 | 0 | 0 | 0 | 0.1
23 | COc1cc(OC2CCN(C)CC2)ccc1Nc1ncc2c(n1)n(C1CCCC1)c(=O)n2C [AZ 3146] | 1.5 | 0.8 | 2.7 | 6.2 | 4.8 | 0.9 | 2.3 | 3.6 | 4.6 | 2.4 | 3.9 | 4.7
24 | CO[C@H](C(=O)[C@@H](O)[C@@H](C)O)[C@@H]1Cc2cc3cc(O[C@H]4C[C@@H](O[C@@H]5C[C@@H](O)[C@H](O)[C@@H](C)O5)[C@H](O)[C@@H](C)O4)c(C)c(O)c3c(O)c2C(=O)[C@H]1O[C@H]1C[C@@H](O[C@@H]2C[C@@H](O)[C@@H](O[C@@H]3C[C@](C)(O)[C@H](O)[C@@H](C)O3)[C@@H](C)O2)[C@H](O)[C@@H](C)O1 [Plicamycin] | 5.7 | 2.9 | 0 | 16.5 | 19.1 | 0 | 0 | 8.8 | 19.4 | 0 | 0 | 0.1
25 | Cc1cccc(-c2nn3c(c2-c2ccnc4ccc(C(N)=O)cc24)CCC3)n1 [Galunisertib] | 0 | 1.8 | 0.3 | 0 | 0 | 0 | 0 | 0 | 0 | 0 | 0 | 0
26 | O=C(O)C(=O)O.[NH-][C@@H]1CCCC[C@H]1[NH-].[Pt+2] [Oxaliplatin] | 8.5 | 0.2 | 5 | 11.4 | 6.9 | 10.7 | 7.8 | 11.8 | 6.8 | 6 | 6.8 | 9
27 | CCc1cc2c(cc1N1CCC(N3CCOCC3)CC1)C(C)(C)c1[nH]c3cc(C#N)ccc3c1C2=O [Alectinib] | 0 | 0 | 0 | 1.5 | 0 | 0 | 0 | 0 | 0.4 | 0 | 0 | 0
28 | COc1cc([C@@H]2c3cc4c(cc3[C@@H](O[C@@H]3O[C@@H]5CO[C@@H](C)O[C@H]5[C@H](O)[C@H]3O)[C@H]3COC(=O)[C@H]23)OCO4)cc(OC)c1O [Etoposide] | 0 | 0.1 | 1.7 | 4.1 | 6.1 | 6.5 | 4.5 | 9.2 | 8.6 | 10.1 | 1.8 | 7
29 | O=C(CCCCCCNC(=O)c1cnc(N(c2ccccc2)c2ccccc2)nc1)NO [Rocilinostat] | 1.4 | 0 | 2.7 | 6.9 | 6 | 9.3 | 1.6 | 5.2 | 7.1 | 5.7 | 3.3 | 1.9
